Measured values reported in ChEMBL document CHEMBL4507311, “Data for DCP probe A-1155463” (2021).

What was measured:
[1] = target: Tyrosine-protein kinase Yes (Homo sapiens) (UniProt P07947); settings: Compound concentration 1000.0 nM
[2] = target: Tyrosine-protein kinase Fes/Fps (Homo sapiens) (UniProt P07332); settings: Compound concentration 1000.0 nM
[3] = target: NUAK family SNF1-like kinase 2 (Homo sapiens) (UniProt Q9H093); settings: Compound concentration 1000.0 nM
[4] = system: Tyrosine-protein kinase ABL1 (Homo sapiens), P00519 [E255K]; settings: Compound concentration 1000.0 nM
[5] = system: Phosphatidylinositol 4,5-bisphosphate 3-kinase catalytic subunit alpha isoform (Homo sapiens), P42336 [E542K]; settings: Compound concentration 1000.0 nM
[6] = target: Non-receptor tyrosine-protein kinase TNK1 (Homo sapiens) (UniProt Q13470); settings: Compound concentration 1000.0 nM
[7] = target: Tyrosine-protein kinase BTK (Homo sapiens) (UniProt Q06187); settings: Compound concentration 1000.0 nM
[8] = target: Serine/threonine-protein kinase PRP4 homolog (Homo sapiens) (UniProt Q13523); settings: Compound concentration 1000.0 nM
[9] = target: Death-associated protein kinase 3 (Homo sapiens) (UniProt O43293); settings: Compound concentration 1000.0 nM
[10] = target: Tyrosine-protein kinase Fer (Homo sapiens) (UniProt P16591); settings: Compound concentration 1000.0 nM
[11] = target: RAC-gamma serine/threonine-protein kinase (Homo sapiens) (UniProt Q9Y243); settings: Compound concentration 1000.0 nM
[12] = system: Receptor-type tyrosine-protein kinase FLT3 (Homo sapiens), P36888 [D835H]; settings: Compound concentration 1000.0 nM
[13] = target: Ephrin type-A receptor 2 (Homo sapiens) (UniProt P29317); settings: Compound concentration 1000.0 nM
[14] = target: Mitogen-activated protein kinase kinase kinase 7 (Homo sapiens) (UniProt O43318); settings: Compound concentration 1000.0 nM
[15] = target: Proto-oncogene tyrosine-protein kinase Src (Homo sapiens) (UniProt P12931); settings: Compound concentration 1000.0 nM
Proto-oncogene tyrosine-protein kinase Src (Homo sapiens), sequence (P12931 2-536 limits assumed): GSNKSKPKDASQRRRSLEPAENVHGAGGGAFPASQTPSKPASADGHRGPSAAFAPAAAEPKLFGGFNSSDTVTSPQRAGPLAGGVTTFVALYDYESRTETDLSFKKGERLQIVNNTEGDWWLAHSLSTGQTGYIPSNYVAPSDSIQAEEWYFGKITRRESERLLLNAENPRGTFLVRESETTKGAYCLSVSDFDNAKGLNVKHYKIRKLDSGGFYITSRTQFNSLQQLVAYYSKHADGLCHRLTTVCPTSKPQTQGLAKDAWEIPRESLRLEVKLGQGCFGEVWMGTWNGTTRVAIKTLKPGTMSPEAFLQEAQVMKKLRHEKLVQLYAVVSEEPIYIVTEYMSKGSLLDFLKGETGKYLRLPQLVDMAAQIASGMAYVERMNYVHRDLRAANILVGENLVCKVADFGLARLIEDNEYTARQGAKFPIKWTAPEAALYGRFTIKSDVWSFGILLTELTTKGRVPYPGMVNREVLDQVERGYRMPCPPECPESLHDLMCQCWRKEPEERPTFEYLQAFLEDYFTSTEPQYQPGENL

[16] = system: Serine/threonine-protein kinase B-raf (Homo sapiens), P15056 [V600E]; settings: Compound concentration 1000.0 nM
[17] = system: Tyrosine-protein kinase ABL1 (Homo sapiens), P00519 [M351T]; settings: Compound concentration 1000.0 nM
[18] = target: Ribosomal protein S6 kinase alpha-1 (Homo sapiens) (UniProt Q15418); settings: Compound concentration 1000.0 nM
Ribosomal protein S6 kinase alpha-1 (Homo sapiens), sequence (Q15418 whole entry): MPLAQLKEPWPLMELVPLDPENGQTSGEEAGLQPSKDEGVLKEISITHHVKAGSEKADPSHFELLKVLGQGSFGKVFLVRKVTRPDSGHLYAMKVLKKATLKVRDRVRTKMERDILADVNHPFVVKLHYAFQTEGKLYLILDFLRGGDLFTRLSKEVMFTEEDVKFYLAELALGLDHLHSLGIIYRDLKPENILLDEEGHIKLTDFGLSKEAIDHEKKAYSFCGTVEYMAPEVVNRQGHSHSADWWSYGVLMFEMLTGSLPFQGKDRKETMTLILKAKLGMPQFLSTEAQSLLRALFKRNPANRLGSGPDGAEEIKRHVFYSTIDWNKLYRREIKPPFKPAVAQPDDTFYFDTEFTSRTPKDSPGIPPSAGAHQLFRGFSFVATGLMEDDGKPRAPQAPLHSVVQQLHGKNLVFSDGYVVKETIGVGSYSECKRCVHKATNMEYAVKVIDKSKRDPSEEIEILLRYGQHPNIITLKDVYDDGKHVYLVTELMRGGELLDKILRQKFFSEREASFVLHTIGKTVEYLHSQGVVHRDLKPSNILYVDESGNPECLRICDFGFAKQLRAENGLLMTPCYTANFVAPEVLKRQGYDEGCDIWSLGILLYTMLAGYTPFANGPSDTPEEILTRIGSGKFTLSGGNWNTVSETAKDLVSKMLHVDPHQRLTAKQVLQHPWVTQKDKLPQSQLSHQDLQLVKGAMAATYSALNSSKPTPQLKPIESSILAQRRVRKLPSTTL

[19] = target: Tyrosine-protein kinase JAK3 (Homo sapiens) (UniProt P52333); settings: Compound concentration 1000.0 nM
[20] = system: Epidermal growth factor receptor (Homo sapiens), P00533 [L858R]; settings: Compound concentration 1000.0 nM
[21] = target: Serine/threonine-protein kinase MRCK gamma (Homo sapiens) (UniProt Q6DT37); settings: Compound concentration 1000.0 nM
[22] = target: Dual specificity tyrosine-phosphorylation-regulated kinase 2 (Homo sapiens) (UniProt Q92630); settings: Compound concentration 1000.0 nM
[23] = target: Casein kinase I isoform alpha-like (Homo sapiens) (UniProt Q8N752); settings: Compound concentration 1000.0 nM
Casein kinase I isoform alpha-like (Homo sapiens), sequence (Q8N752 whole entry, canonical isoform): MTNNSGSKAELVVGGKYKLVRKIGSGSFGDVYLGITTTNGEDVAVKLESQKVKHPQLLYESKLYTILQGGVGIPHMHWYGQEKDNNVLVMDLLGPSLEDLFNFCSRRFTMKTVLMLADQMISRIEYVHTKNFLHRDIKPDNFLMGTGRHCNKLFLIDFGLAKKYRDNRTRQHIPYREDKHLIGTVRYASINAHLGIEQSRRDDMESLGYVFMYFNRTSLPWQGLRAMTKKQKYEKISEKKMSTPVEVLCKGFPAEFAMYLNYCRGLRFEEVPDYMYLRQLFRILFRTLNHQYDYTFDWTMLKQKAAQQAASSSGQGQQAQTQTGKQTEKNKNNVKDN

[24] = target: Serine/threonine-protein kinase 17B (Homo sapiens) (UniProt O94768); settings: Compound concentration 1000.0 nM
[25] = target: Receptor tyrosine-protein kinase erbB-4 (Homo sapiens) (UniProt Q15303); settings: Compound concentration 1000.0 nM
Receptor tyrosine-protein kinase erbB-4 (Homo sapiens), sequence (Q15303 whole entry): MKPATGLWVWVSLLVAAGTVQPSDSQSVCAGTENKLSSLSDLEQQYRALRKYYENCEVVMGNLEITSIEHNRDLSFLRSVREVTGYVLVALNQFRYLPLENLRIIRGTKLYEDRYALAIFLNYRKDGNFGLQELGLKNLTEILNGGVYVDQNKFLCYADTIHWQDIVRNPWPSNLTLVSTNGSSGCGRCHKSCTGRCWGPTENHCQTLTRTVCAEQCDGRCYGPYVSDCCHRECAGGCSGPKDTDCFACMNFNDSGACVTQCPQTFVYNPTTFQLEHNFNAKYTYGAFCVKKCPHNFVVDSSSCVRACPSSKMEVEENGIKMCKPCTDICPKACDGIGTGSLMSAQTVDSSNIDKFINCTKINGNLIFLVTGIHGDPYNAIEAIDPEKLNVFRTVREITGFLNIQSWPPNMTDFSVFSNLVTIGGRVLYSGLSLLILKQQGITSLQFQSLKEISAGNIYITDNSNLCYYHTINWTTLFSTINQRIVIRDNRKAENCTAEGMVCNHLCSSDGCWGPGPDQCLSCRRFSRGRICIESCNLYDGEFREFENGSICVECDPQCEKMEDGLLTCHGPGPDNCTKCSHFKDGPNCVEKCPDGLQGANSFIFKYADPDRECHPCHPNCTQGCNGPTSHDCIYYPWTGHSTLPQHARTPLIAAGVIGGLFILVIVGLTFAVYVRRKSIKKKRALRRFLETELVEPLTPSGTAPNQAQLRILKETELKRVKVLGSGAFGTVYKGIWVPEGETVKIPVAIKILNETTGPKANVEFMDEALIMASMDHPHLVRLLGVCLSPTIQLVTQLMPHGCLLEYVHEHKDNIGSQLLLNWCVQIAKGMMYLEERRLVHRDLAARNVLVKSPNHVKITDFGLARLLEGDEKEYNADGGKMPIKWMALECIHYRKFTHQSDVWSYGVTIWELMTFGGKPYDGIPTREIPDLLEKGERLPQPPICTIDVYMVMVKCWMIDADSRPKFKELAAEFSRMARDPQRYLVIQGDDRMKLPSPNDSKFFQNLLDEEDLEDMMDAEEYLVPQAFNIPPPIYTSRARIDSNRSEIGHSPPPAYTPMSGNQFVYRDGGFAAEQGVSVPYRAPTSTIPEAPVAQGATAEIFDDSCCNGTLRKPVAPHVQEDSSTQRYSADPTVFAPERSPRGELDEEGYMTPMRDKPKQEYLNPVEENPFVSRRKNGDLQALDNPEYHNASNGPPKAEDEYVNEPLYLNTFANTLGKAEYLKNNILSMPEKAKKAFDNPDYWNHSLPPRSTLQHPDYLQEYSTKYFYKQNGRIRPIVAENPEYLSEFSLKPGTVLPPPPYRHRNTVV

[26] = target: T1, 5-hydroxytryptamine receptor 1A (Homo sapiens) (UniProt P08908); settings: Compound concentration 10.0 uM
T1 sequence (whole entry): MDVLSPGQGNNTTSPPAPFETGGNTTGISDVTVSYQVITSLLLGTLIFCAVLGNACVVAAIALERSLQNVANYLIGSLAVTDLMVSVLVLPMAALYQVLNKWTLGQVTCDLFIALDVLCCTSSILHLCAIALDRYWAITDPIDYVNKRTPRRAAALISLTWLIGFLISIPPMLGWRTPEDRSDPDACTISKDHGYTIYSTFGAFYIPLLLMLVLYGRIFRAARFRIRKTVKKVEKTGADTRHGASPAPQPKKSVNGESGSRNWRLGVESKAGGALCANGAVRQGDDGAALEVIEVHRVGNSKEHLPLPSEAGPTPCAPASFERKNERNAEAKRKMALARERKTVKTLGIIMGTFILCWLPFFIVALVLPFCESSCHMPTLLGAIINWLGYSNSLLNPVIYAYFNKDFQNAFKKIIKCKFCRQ

[27] = target: Tyrosine-protein kinase Lck (Homo sapiens) (UniProt P06239); settings: Compound concentration 1000.0 nM
Tyrosine-protein kinase Lck (Homo sapiens), sequence (P06239 2-509 limits assumed): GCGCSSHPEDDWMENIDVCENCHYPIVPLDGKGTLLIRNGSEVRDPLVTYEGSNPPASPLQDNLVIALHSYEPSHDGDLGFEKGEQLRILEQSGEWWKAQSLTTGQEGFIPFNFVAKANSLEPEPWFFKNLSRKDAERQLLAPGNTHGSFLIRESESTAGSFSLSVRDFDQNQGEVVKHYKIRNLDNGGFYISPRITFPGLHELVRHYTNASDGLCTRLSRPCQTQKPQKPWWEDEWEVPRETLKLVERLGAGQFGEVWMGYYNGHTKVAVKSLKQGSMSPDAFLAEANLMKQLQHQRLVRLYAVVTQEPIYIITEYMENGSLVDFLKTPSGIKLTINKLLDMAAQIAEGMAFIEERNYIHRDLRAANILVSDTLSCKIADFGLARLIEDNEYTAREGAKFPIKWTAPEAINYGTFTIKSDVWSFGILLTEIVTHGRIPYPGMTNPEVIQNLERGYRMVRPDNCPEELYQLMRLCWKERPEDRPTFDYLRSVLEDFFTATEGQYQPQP

[28] = target: Phosphatidylinositol 5-phosphate 4-kinase type-2 gamma (Homo sapiens) (UniProt Q8TBX8); settings: Compound concentration 1000.0 nM
[29] = target: Serine/threonine-protein kinase BRSK1 (Homo sapiens) (UniProt Q8TDC3); settings: Compound concentration 1000.0 nM
[30] = target: NUAK family SNF1-like kinase 1 (Homo sapiens) (UniProt O60285); settings: Compound concentration 1000.0 nM
[31] = target: Tyrosine-protein kinase receptor TYRO3 (Homo sapiens) (UniProt Q06418); settings: Compound concentration 1000.0 nM
Tyrosine-protein kinase receptor TYRO3 (Homo sapiens), sequence (Q06418 whole entry): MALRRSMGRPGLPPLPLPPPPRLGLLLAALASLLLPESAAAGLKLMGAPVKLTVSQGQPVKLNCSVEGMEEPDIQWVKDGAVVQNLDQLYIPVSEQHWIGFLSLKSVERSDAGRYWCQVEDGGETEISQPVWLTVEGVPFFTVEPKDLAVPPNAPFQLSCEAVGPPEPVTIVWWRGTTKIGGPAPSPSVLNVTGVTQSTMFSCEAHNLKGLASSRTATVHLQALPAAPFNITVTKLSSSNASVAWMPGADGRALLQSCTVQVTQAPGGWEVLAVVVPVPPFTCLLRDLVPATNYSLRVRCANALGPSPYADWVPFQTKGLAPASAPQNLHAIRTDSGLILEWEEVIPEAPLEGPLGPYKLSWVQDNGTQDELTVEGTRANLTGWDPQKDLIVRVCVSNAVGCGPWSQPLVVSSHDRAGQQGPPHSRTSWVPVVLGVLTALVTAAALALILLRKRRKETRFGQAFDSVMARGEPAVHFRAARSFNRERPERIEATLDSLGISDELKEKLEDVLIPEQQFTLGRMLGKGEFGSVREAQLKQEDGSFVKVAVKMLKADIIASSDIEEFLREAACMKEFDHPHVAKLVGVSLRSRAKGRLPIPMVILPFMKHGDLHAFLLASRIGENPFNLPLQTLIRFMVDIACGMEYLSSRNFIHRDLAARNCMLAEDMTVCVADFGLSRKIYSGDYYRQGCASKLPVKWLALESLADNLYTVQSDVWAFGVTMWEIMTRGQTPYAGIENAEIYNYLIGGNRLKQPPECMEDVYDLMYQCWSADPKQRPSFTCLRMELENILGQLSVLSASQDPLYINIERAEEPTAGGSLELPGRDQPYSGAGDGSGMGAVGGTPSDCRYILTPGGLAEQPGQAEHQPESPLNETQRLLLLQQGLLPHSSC

[32] = target: Fibroblast growth factor receptor 3 (Homo sapiens) (UniProt P22607); settings: Compound concentration 1000.0 nM
[33] = target: cAMP-dependent protein kinase catalytic subunit PRKX (Homo sapiens) (UniProt P51817); settings: Compound concentration 1000.0 nM
[34] = target: Ribosomal protein S6 kinase alpha-1 (Homo sapiens) (UniProt Q15418); settings: Compound concentration 1000.0 nM; remark: listed apart in the source
[35] = target: Serine/threonine-protein kinase PLK3 (Homo sapiens) (UniProt Q9H4B4); settings: Compound concentration 1000.0 nM
[36] = target: 1-phosphatidylinositol 3-phosphate 5-kinase (Homo sapiens) (UniProt Q9Y2I7); settings: Compound concentration 1000.0 nM
[37] = system: Receptor-type tyrosine-protein kinase FLT3 (Homo sapiens), P36888 [K663Q]; settings: Compound concentration 1000.0 nM
[38] = system: Epidermal growth factor receptor (Homo sapiens), P00533 [UNDEFINED MUTATION]; settings: Compound concentration 1000.0 nM
[39] = target: Discoidin domain-containing receptor 2 (Homo sapiens) (UniProt Q16832); settings: Compound concentration 1000.0 nM

NUAK family SNF1-like kinase 2 (Homo sapiens), sequence (Q9H093 whole entry): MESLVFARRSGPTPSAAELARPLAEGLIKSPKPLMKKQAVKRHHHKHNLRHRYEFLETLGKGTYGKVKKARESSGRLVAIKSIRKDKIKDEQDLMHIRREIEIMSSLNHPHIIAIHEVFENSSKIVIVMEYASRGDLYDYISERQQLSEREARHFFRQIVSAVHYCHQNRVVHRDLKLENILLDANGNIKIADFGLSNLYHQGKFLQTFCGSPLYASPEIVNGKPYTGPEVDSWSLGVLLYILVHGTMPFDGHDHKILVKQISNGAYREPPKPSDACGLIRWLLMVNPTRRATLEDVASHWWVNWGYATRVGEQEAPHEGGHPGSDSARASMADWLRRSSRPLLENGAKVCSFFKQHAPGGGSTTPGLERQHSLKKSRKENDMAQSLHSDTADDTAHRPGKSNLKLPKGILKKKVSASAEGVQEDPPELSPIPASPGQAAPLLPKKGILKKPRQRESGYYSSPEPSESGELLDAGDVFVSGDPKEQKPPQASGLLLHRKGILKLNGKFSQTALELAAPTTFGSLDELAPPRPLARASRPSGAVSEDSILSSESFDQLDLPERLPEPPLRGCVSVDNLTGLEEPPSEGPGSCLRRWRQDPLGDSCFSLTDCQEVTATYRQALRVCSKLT

CN(C)CC#Cc1ccc(OCCCc2sc(N3CCc4cccc(C(=O)Nc5nc6ccccc6s5)c4C3)nc2C(=O)O)c(F)c1 [A-1155463]
inactive: residual activity [1] 100% | residual activity [2] 100% | residual activity [3] 82% | residual activity [4] 85% | residual activity [5] 72% | residual activity [6] 98% | residual activity [7] 96% | residual activity [8] 100% | residual activity [9] 90% | residual activity [10] 100% | residual activity [11] 100% | residual activity [12] 93% | residual activity [13] 92% | residual activity [14] 100% | residual activity [15] 100% | residual activity [16] 79% | residual activity [17] 91% | residual activity [18] 93% | residual activity [19] 58% | residual activity [20] 89% | residual activity [21] 90% | residual activity [22] 100% | residual activity [23] 100% | residual activity [24] 72% | residual activity [25] 99% | inhibition [26] 5.18% | residual activity [27] 100% | residual activity [28] 100% | residual activity [29] 100% | residual activity [30] 80% | residual activity [31] 94% | residual activity [32] 98% | residual activity [33] 98% | residual activity [34] 81% | residual activity [35] 92% | residual activity [36] 100% | residual activity [37] 100% | residual activity [38] 100% | residual activity [39] 83%
